Test results published in US10100033B2 (dated 2018).

CCN(C(C)=O)c1cn(-c2cccnc2)nc1Cl
melting point: 87 to 91 °C
